Activity calls are given as the source filed them.
Tests used:
[1] = viability of uninfected HEp-2 cells – cell-based, HTS, cytotoxicity control for RSV inhibitor project, dose response (AID 2410); format: functional; conditions: human respiratory syncytial virus
[2] = molecular target: T1, Replicative DNA helicase DnaB (Mycobacterium tuberculosis, UniProt P9WMR3); experiment: DnaB intein splicing inhibitors, dose response, biochemical, cell-free fluorescence (AID 449749); format: functional
T1 sequence (P9WMR3 whole entry): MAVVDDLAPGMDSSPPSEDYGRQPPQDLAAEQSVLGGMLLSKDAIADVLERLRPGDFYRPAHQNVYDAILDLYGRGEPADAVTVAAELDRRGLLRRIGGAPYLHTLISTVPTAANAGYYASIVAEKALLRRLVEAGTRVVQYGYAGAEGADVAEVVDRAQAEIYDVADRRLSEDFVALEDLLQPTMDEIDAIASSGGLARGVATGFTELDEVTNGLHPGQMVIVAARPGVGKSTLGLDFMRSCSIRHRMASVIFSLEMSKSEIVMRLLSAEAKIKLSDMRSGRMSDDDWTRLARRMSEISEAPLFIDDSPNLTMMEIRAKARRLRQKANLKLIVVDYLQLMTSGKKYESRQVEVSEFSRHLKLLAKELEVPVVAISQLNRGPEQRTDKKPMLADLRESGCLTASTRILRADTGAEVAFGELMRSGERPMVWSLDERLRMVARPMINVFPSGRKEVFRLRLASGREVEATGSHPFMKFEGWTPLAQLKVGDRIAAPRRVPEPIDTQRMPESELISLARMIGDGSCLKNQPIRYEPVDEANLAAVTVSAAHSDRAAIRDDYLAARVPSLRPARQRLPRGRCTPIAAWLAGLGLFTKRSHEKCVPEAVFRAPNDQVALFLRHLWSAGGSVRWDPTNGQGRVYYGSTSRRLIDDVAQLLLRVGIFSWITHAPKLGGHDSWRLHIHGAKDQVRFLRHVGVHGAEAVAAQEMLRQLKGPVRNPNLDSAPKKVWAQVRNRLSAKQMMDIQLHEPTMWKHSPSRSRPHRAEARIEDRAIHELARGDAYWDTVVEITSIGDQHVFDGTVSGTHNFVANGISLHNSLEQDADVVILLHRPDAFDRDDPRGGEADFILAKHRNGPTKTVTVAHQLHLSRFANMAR

Protein RecA = molecular target: T2, Protein RecA (Mycobacterium tuberculosis, UniProt P9WHJ3); experiment: Fluorescence Cell-Free Homogeneous Dose Retest to Identify Inhibitors of RecA-Intein Splicing Activity. [Related pubchem assays (depositor defined):AID2097, AID2223, AID489010, AID492950]; format: functional
T2 sequence (P9WHJ3 whole entry): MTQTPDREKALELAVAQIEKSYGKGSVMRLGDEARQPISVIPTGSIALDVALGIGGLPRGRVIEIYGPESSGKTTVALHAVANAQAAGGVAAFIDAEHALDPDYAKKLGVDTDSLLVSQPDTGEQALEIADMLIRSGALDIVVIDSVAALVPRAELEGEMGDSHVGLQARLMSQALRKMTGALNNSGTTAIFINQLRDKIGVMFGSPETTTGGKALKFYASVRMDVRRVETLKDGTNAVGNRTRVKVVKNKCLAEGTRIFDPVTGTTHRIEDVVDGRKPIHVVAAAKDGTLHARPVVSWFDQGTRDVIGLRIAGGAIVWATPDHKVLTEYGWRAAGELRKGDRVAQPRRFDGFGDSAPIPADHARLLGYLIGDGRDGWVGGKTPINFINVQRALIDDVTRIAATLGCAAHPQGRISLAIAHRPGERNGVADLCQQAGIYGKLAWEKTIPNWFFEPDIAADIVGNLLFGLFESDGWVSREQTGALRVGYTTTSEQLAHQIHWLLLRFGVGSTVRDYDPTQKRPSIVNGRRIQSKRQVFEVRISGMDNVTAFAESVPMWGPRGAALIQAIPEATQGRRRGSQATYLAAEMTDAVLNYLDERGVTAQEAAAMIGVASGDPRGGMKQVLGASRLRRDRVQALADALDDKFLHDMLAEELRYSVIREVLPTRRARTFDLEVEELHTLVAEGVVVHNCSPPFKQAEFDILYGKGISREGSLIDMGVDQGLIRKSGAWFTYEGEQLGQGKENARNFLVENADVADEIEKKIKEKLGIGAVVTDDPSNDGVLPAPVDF

Cytochrome P450 1A2 = molecular target: T3, Cytochrome P450 1A2 (Homo sapiens, UniProt P05177);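 note: PubChem cytochrome P450 panel assay, CYP1A2 panel member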
T3 sequence (P05177 whole entry): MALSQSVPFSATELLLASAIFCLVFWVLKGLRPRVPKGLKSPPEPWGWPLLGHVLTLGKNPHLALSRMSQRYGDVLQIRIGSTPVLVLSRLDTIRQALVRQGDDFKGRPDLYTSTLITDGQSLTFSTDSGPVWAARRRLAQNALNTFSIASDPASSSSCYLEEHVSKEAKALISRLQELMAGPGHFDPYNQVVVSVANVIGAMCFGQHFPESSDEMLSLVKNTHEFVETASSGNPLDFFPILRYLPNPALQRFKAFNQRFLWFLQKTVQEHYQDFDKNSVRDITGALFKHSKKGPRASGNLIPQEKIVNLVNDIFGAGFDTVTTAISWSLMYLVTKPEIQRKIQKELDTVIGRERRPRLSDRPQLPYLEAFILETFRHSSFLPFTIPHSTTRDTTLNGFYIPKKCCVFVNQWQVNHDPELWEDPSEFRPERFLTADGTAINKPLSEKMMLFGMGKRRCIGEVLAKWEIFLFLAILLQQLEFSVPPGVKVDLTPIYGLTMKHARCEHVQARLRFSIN

Cytochrome P450 2C9 = Cytochrome P450 2C9 (Homo sapiens, UniProt P11712)
Sequence of Cytochrome P450 2C9 (P11712 whole entry): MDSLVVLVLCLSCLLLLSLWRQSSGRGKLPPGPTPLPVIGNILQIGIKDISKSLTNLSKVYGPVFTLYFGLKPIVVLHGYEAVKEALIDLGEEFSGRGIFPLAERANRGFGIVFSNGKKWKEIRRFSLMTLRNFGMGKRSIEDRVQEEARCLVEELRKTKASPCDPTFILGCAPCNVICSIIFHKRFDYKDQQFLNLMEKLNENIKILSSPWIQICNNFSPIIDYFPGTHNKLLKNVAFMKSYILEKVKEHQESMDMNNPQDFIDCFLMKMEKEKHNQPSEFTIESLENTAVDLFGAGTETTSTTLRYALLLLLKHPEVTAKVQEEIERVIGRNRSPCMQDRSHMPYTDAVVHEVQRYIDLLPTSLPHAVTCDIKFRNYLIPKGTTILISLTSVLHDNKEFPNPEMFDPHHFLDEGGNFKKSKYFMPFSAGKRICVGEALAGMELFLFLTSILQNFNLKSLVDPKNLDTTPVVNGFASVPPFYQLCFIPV

[3] = molecular target: T4, Rac GTPase-activating protein 1 (Homo sapiens, UniProt Q9H0H5); experiment: blockers of MgcRacGAP-driven Rac1 GTP hydrolysis – biochemical, ADP Hunter fluorescence, primary and confirmatory, confirmation (AID 624330); format: functional
T4 sequence (Q9H0H5 whole entry): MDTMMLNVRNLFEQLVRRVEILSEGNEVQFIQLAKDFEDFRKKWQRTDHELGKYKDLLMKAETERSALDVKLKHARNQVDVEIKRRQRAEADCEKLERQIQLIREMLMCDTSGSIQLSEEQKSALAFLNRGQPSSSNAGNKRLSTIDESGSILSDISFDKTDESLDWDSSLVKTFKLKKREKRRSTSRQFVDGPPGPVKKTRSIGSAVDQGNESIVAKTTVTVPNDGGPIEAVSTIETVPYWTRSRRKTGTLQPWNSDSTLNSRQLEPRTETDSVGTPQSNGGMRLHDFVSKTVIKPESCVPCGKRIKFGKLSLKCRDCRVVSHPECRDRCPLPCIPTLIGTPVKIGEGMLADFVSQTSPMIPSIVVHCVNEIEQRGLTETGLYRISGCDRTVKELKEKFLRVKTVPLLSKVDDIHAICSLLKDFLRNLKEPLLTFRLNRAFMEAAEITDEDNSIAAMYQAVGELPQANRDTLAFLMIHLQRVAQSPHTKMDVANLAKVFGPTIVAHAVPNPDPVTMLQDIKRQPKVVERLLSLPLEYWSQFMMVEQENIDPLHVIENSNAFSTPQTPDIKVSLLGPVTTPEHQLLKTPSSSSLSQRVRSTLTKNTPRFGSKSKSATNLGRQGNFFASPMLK

[4] = NIH-3T3 fibroblast cytotoxicity, dose response, cytotoxicity control, cell-based, fluorescence, Alamar Blue, secondary assay (AID 2327); format: functional;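 note: NIH-3T3 mouse fibroblasts cultured with fluconazole at 8 µg/mL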
P388/ADR = experiment: cells; format: functional; conditions: Mus musculus

SMILES: NS(=O)(=O)c1cccc(NC(=O)COC(=O)c2cc(-c3ccc(Cl)cc3)nc3ccccc23)c1
- CC50 [1]: 18.5 µM (active)

SMILES: CC1=NNC(=O)C1Cc1ccccc1 (stereo not drawn)
- AC50 [2]: 0.651 µM (active)
- EC50 (Protein RecA): 0.294 µM (active)

SMILES: COC(=O)[C@@]1(Cc2ccccc2)[C@H]2c3cc(C(=O)N4CCCC4)n(C)c3C[C@H]2CN1C(=O)c1ccccc1
- AC50 (Cytochrome P450 1A2): 25.1 µM (inconclusive)

SMILES: CC(C)C(=O)N1CCN(c2c(Cl)cccc2[N+](=O)[O-])CC1
- CC50 [1]: 16.3 µM (active)

SMILES: COC(=O)Cc1c(C)nc2nc(NCc3ccccc3OC)nn2c1O
- AC50 (Cytochrome P450 2C9): 22.4 µM (inconclusive)

SMILES: COc1ccc(/C=N/N=C(\N)c2nonc2N)cc1OC
- CC50 [1]: 30.9 µM (active)

SMILES: COc1ccc(-c2cc(OC)c3ccccc3n2)cc1
- CC50 [1]: > 50 µM (active)

SMILES: CC1(C)SC(=S)N(NC(=O)Nc2ccccc2)C1N(O)C(=O)Nc1ccccc1 (stereo not drawn)
- AC50 (Cytochrome P450 1A2): 28.2 µM (inconclusive)

SMILES: CCOC(=O)[C@H](N)/C=C(\C)CP(=O)(O)O
- AC50 (Cytochrome P450 2C9): 25.1 µM (inconclusive)

SMILES: O=C(CNCc1ccc(Cl)cc1)Nc1ccc2c(c1)OCCO2
- IC50 [3]: 156 µM (active)

SMILES: COC(=O)c1ccc2c(=O)n(CCO)c(=S)[nH]c2c1
- CC50 [1]: 25.2 µM (active)

SMILES: CCNC(=O)c1ccccc1-c1nc(-c2ccccc2)no1
- AC50 [2]: > 380 µM (inactive)
- EC50 (Protein RecA): > 380 µM (inactive)

SMILES: O=c1c2ccccc2nc(-c2ccc([N+](=O)[O-])cc2)n1O
- EC50 [4]: > 150 µM (inactive)

SMILES: Cc1onc(-c2c(Cl)cccc2Cl)c1C(=O)N1C(C)CCCC1C (stereo not drawn)
- AC50 [2]: 118 µM (active)
- EC50 (Protein RecA): > 380 µM (inactive)

SMILES: CCOc1cc(C(c2c(C)n[nH]c2O)c2c(C)n[nH]c2O)ccc1OS(=O)(=O)c1ccc(C)cc1
- AC50 [2]: 0.413 µM (active)
- EC50 (Protein RecA): 0.152 µM (active)

SMILES: COCCn1c(=O)cnc2cnc(Nc3cccc(OC)c3)nc21
- AC50 (Cytochrome P450 2C9): 25.1 µM (inconclusive)

SMILES: Oc1ncnc2scc(-c3ccc(Br)cc3)c12
- CC50 [1]: > 50 µM (active)

SMILES: CNC(=S)N1CCN(c2ccccc2OC)CC1
- AC50 (Cytochrome P450 2C9): 14.1 µM (inconclusive)

SMILES: CCC(C)Oc1ccc(/C=C/c2nc(O)nc(O)c2[N+](=O)[O-])cc1OC (stereo not drawn)
- CC50 [1]: 12.9 µM (active)

SMILES: CCn1c(SCc2ccc(Cl)cc2Cl)nc2nc3c(cc2c1=O)CCCC3
- AC50 (Cytochrome P450 2C9): 5.01 µM (inconclusive)

SMILES: CN(C)/C=N/c1nc(-c2ccc3ccccc3c2)cs1
- CC50 [1]: 22.8 µM (active)

SMILES: Cc1ccc(N2C(S)=C(C#N)C(=O)NC2c2cccs2)cc1 (stereo not drawn)
- IC50 [3]: 128 µM (active)

SMILES: COC(=O)c1ccccc1OC(=O)c1ccc(Br)o1
- AC50 [2]: 12.8 µM (active)
- EC50 (Protein RecA): 15.2 µM (active)

SMILES: COC(=O)c1ccccc1OCC(=O)N1CCN(c2ccc(Cl)cc2)CC1
- AC50 (Cytochrome P450 1A2): 14.1 µM (inconclusive)
- AC50 (Cytochrome P450 2C9): 14.1 µM (inconclusive)

SMILES: CN1C(=O)C(Cc2ccc3c(c2)OCO3)C(=O)N(C)C1=O
- AC50 [2]: 35.3 µM (active)
- EC50 (Protein RecA): 10 µM (active)

SMILES: CNc1cc([N+](=O)[O-])ccc1OCc1ccccc1
- CC50 [1]: 18.7 µM (active)

SMILES: COc1ccc(S(=O)(=O)NC2(C(F)(F)F)N=C3SCCN3C2=O)cc1 (stereo not drawn)
- AC50 (Cytochrome P450 1A2): 31.6 µM (inconclusive)
- AC50 (Cytochrome P450 2C9): 28.2 µM (inconclusive)

SMILES: CN(C)c1ncc2nc(-c3ccccc3)c(=O)n(Cc3ccc(F)cc3)c2n1
- AC50 (Cytochrome P450 1A2): 12.6 µM (inconclusive)

SMILES: Cc1oc(-c2ccccc2Cl)nc1CSCC(=O)NC1CC1
- AC50 (Cytochrome P450 2C9): 20 µM (inconclusive)

SMILES: O=C(N/N=C/c1ccc(O)cc1)NC12CC3CC(CC(C3)C1)C2
- IC50 [3]: 55.9 µM (active)

SMILES: COc1ccccc1Nc1ncc(-c2cccs2)s1
- CC50 [1]: 43 µM (active)

SMILES: O=C(NC(=C(Cl)Cl)S(=O)(=O)c1ccc(Cl)cc1)c1ccccc1
- AC50 [2]: > 380 µM (inactive)
- EC50 (Protein RecA): 1.53 µM (active)

SMILES: Cc1ccccc1OC[C@H](O)CO
- AC50 (Cytochrome P450 1A2): 15.8 µM (inconclusive)

SMILES: CC1(C)OC(C)(C)C(/C=N/c2ccc(O)cc2)=C1O
- IC50 [3]: 17 µM (active)

SMILES: C/C=C(\C)C(=O)OC1C2C(C)=CC(=O)C(O)C2(C)C2C3(O)OCC24C1OC(=O)C(OC(C)=O)C4C(C)C3O (stereo not drawn)
- GI50 (P388/ADR): 0.319 µM (active)

SMILES: COc1cc(N)c(Cc2nccc3cc(OC)c(OC)cc23)cc1OC
- AC50 [2]: > 380 µM (inactive)
- EC50 (Protein RecA): 31.7 µM (active)

SMILES: COc1ccc(CN2CN(c3ccc(Cl)cc3)C(=O)N(n3cnnc3)C2)cc1
- AC50 (Cytochrome P450 1A2): 15.8 µM (inconclusive)
- AC50 (Cytochrome P450 2C9): 39.8 µM (inconclusive)

SMILES: c1ccc(SC(Sc2ccccc2)c2ccc3c(c2)OCO3)cc1
- AC50 (Cytochrome P450 1A2): 0.501 µM (inconclusive)

SMILES: CCOC(=O)/C(C#N)=C1\C(=O)N(Cc2ccccc2)c2ccccc21
- IC50 [3]: 42.4 µM (active)

SMILES: CCN(Cc1ccccc1)C1CCN(Cc2ccc(SC)cc2)CC1
- IC50 [3]: 100 µM (active)

SMILES: COc1ccc(C)cc1Nc1nc(N)c2ccccc2n1
- CC50 [1]: > 50 µM (active)

SMILES: Cc1ccc(OCC(=O)NC2=NCCS2)cc1
- AC50 (Cytochrome P450 2C9): 10 µM (inconclusive)

SMILES: Oc1ccc(-c2nccs2)cc1
- IC50 [3]: 28.1 µM (active)

SMILES: CC(NCc1ccc(S(N)(=O)=O)cc1)C(=O)N1c2ccccc2CC1C (stereo not drawn)
- IC50 [3]: 135 µM (active)

SMILES: CN(C)CCn1c(C(=O)O)cc2ccccc21
- AC50 (Cytochrome P450 1A2): 0.0158 µM (inconclusive)

SMILES: C=CCc1cccc(/C=N/c2cnc(O)nc2O)c1O
- AC50 [2]: > 380 µM (inactive)
- EC50 (Protein RecA): > 380 µM (inconclusive)
